According to patent US20250197394A1, “ANTIBACTERIALS BASED ON MONOCYCLIC FRAGMENTS COUPLED TO AMINOPIPERIDINE NAPHTHYRIDINE SCAFFOLD” (UNIVERZA V LJUBLJANI, priority 2019, published 2025):
Values after ≈ are worked out from the molar mass of the structure shown.

Key:
Assay type in all cases: cell-based
[1] = test system: methicillin-resistant Staphylococcus pseudintermedius S-35; assay: MIC broth microdilution, MRSP S-35; settings: 20 hours of incubation
Method: (§1) Minimal inhibitory concentrations were determined by the broth microdilution method in 96-wells plate format following the Clinical and Laboratory Standards Institute (CLSI) guidelines given in “Methods for Dilution Antimicrobial Susceptibility Tests for Bacteria That Grow Aerobically, Approved Standard, 10th Edition, CLSI document M07-A10, Wayne, PA: Clinical and Laboratory Standards Institute, USA, 2015” and European Committee on Antimicrobial Susceptibility Testing (EUCAST) recommendations given in “The European Committee on Antimicrobial Susceptibility Testing, Breakpoint tables for interpretation of MICs and zone diameters, Version 5.0, 2015”. All exemplified compounds were tested on several Gram-positive (S. aureus, methicillin-resistant Staphylococcus aureus (MRSA), methicillin-resistant
(§2) Staphylococcus schleiferi subspecies coagulans, methicillin-resistant Staphylococcus pseudintermedius
(§3) (S-48, S-84, S-35, S-52, S-40 and S-51), Streptococcus agalactiae and Enterococcus faecalis) and Gram-negative bacteria (E. coli, Salmonella Alachua and Pseudomonas aeruginosa).
(§4) The MICs were visually determined as the lowest compound concentration inhibiting bacterial growth after 20 hours of incubation time. […] MIC values are represented in Table 2.

[2] = test system: methicillin-resistant Staphylococcus pseudintermedius S-52; assay: MIC broth microdilution, MRSP S-52; settings: 20 hours of incubation
Method: as §1, §2, §3, §4

P. aeruginosa RDK 184 = assay: MIC broth microdilution, P. aeruginosa; settings: Pseudomonas aeruginosa, RDK184, 20 hours of incubation
Method: as §1, §2, §3, §4

HUVEC (ATCC) cell line = assay: Cytotoxicity, metabolic cell activity (CellTiter 96 AQueous One), HUVEC; settings: two independent experiments
Method: (§5) Cytotoxicity was assessed in assay measuring metabolic cell activity performed on HepG2 (ATCC) and HUVEC (ATCC) cell lines according to the protocol of CellTiter 96® AQueous One Solution Cell Proliferation Assay 2018, Promega, USA, 2001. The method involved absorbance measurements after the treatment of cells with compounds at concentrations 1 μM and 50 μM.
(§6) The results are given as the mean percentage of metabolic activity of treated cells from two independent experiments and are represented in Table 3.

HepG2 (ATCC) cell line = assay: Cytotoxicity, metabolic cell activity (CellTiter 96 AQueous One), HepG2; settings: two independent experiments
Method: as §5, §6

S. aureus = assay: MIC broth microdilution, S. aureus; settings: Staphylococcus aureus, 20 hours of incubation
Method: as §1, §2, §3, §4

[3] = test system: methicillin-resistant Staphylococcus pseudintermedius S-48; assay: MIC broth microdilution, MRSP S-48; settings: 20 hours of incubation
Method: as §1, §2, §3, §4

[4] = test system: methicillin-resistant Staphylococcus pseudintermedius S-51; assay: MIC broth microdilution, MRSP S-51; settings: 20 hours of incubation
Method: as §1, §2, §3, §4

[5] = test system: methicillin-resistant Staphylococcus pseudintermedius S-84; assay: MIC broth microdilution, MRSP S-84; settings: 20 hours of incubation
Method: as §1, §2, §3, §4

[6] = test system: methicillin-resistant Staphylococcus schleiferi subspecies coagulans; assay: MIC broth microdilution, MRSS; settings: 20 hours of incubation
Method: as §1, §2, §3, §4

E. faecalis DRK 057 = assay: MIC broth microdilution, E. faecalis; settings: Enterococcus faecalis, DRK057, 20 hours of incubation
Method: as §1, §2, §3, §4

[7] = test system: methicillin-resistant Staphylococcus pseudintermedius S-40; assay: MIC broth microdilution, MRSP S-40; settings: 20 hours of incubation
Method: as §1, §2, §3, §4

C. jejuni RDK-135 = assay: MIC broth microdilution, C. jejuni; settings: Campylobacter jejuni, RDK135, 20 hours of incubation
Method: as §1, §4

COc1ccc2nccc(CCN3CCC(NCc4ccc(Cl)cc4)CC3)c2n1 [Compound C6, N-(4-chlorobenzyl)-1-(2-(6-methoxy-1,5-naphthyridin-4-yl)ethyl)piperidin-4-amine]
MIC [1]: 0.25 µg/mL (≈ 0.608 µM)
MIC [2]: 0.5 µg/mL (≈ 1.22 µM)
MIC (P. aeruginosa RDK 184): > 128 µg/mL
mean percentage of metabolic activity of treated cells, HUVEC 1 μM (HUVEC (ATCC) cell line; compound 1 μM): 86.1 ± 17.1%
mean percentage of metabolic activity of treated cells, HUVEC 50 μM (HUVEC (ATCC) cell line; compound 50 μM): −0.6 ± 0.4%
mean percentage of metabolic activity of treated cells, HepG2 1 μM (HepG2 (ATCC) cell line; HepG2, compound 1 μM): 84.5 ± 11.1%
mean percentage of metabolic activity of treated cells, HepG2 50 μM (HepG2 (ATCC) cell line; HepG2, compound 50 μM): 0.9 ± 0.1%
MIC (S. aureus): 0.125 µg/mL (≈ 0.304 µM)
MIC [3]: 0.25 µg/mL (≈ 0.608 µM)
MIC [4]: 0.25 µg/mL (≈ 0.608 µM)
MIC [5]: 0.25 µg/mL (≈ 0.608 µM)
MIC [6]: ≤ 0.0078 µg/mL
MIC (E. faecalis DRK 057): 1 µg/mL (≈ 2.43 µM)
MIC [7]: 0.25 µg/mL (≈ 0.608 µM)
MIC (C. jejuni RDK-135): 2 µg/mL (≈ 4.87 µM)
